Measurements reported in patent US5420140A, “Difluorinated quinolones useful for treating bacterial infections” (Bouchara S.A., priority 1991, dated 1995).
In brackets after ≈: the same amount, converted by molar mass. Where two headings read alike, the source gives them in different places.

What was measured:
S. aureus CB-951 = test: Determination of MIC and MBC by microdilution method, S. aureus CB-951; type: cell-based, Staphylococcus aureus; settings: for MIC / MBC: Staphylococcus aureus; for MIC: CB951, 18 h, read-out: Minimal inhibitory concentration (MIC)
Protocol: (§1) The compound have been tested towards 7 reference strains:
Staphylococcus aureus CB 951
(§2) The determination of minimal inhibitory concentrations (MIC) has been performed using a microdution method (microplates and inoculator Dynatech) in liquid medium (MUELLER-HINTON broth) under a volume of 100 μl and for a range of concentrations from 128 to 0.06 mg/l, prepared from a mother liquor of antibiotics titrating 512 mg/l. The preparation of these mother liquors has been performed and vary depending on the molecules as a function of the solubility criterions. Inoculation has been done by adding in each will, 10 μl of a dilution in saline of 18 hours old broth in a brain-heart broth, such as each well contains about 10^6 bacterias/ml.
(§3) The Minimal Inhibitory Concentrations are read as the first concentration of antibiotic which will not give a growth macroscopically detectable after 18 hours incubating at 37°.

[1] = system: Pseudomonas aeruginosa ATCC 22853; test: Determination of MIC and MBC by microdilution method, Pseudomonas aeruginosa ATCC 22853; type: cell-based; settings: for MIC / MBC: Pseudomonas aeruginosa; for MIC: ATCC22853, 18 h, read-out: Minimal inhibitory concentration (MIC)
Protocol: as §1
Pseudomonas aeruginosa ATCC 22853
(§4) The preparation of these mother liquors has been performed and vary depending on the molecules as a function of the solubility criterions. Inoculation has been done by adding in each will, 10 μl of a dilution in saline of 18 hours old broth in a brain-heart broth, such as each well contains about 10^6 bacterias/ml. […]

[2] = system: Staphylococcus aureus ATCC 25923; test: Determination of MIC and MBC by microdilution method, Staphylococcus aureus ATCC 25923; type: cell-based; settings: for MIC / MBC: Staphylococcus aureus; for MIC: ATCC25923, 18 h, read-out: Minimal inhibitory concentration (MIC)
Protocol: as §1
Staphylococcus aureus ATCC 25923
as §2, §3

[3] = system: Acinetobacter Baumanii ATCC 17904; test: Determination of MIC and MBC by microdilution method, Acinetobacter; type: cell-based; settings: for MIC / MBC: Acinetobacter baumannii; for MIC: ATCC17904, 18 h, read-out: Minimal inhibitory concentration (MIC)
Protocol: The compound have been tested towards 7 reference strains: […]
as §2, §3

[4] = system: Streptococcus faecalis ATCC 8043; test: Determination of MIC and MBC by microdilution method, Streptococcus faecalis ATCC 8043; type: cell-based; settings: for MIC / MBC: Enterococcus faecalis; for MIC: read-out: Minimal inhibitory concentration (MIC)
Protocol: as §1
Streptococcus faecalis ATCC 8043
as §4

[5] = system: Escherichia coli ATCC 25922; test: Determination of MIC and MBC by microdilution method, Escherichia coli ATCC 25922; type: cell-based; settings: E. coli ATCC 25922; for MIC / MBC: Escherichia coli, ATCC25922; for MIC: read-out: Minimal inhibitory concentration (MIC); for MBC: read-out: Minimal bactericidal concentration (MBC)
Protocol: as §1
Escherichia coli ATCC 25922
as §2, §3

[6] = S. aureus CB-951, methicillino, erythromycinolincomycino, pefloxacino resistant, Mueller-Hinton broth, 18 hours at 37°
[7] = CB951, S. aureus CB-951, methicillino, erythromycinolincomycino, pefloxacino resistant, read-out: Minimal bactericidal concentration (MBC)
[8] = P. aeruginosa ATCC 22853, Mueller-Hinton broth, 18 hours at 37°
[9] = ATCC22853, P. aeruginosa ATCC 22853, read-out: Minimal bactericidal concentration (MBC)
[10] = S. aureus ATCC 25923, Mueller-Hinton broth, 18 hours at 37°
[11] = ATCC25923, S. aureus ATCC 25923, read-out: Minimal bactericidal concentration (MBC)
[12] = Mueller-Hinton broth, 18 hours at 37°
[13] = Acinetobacter Baumanii ATCC 17904, Mueller-Hinton broth, 18 hours at 37°
[14] = ATCC17904, Acinetobacter Baumanii ATCC 17904, read-out: Minimal bactericidal concentration (MBC)
[15] = ATCC8043, S. faecalis ATCC 8043, read-out: Minimal bactericidal concentration (MBC)
[16] = ATCC8043, S. faecalis ATCC 8043, Mueller-Hinton broth, 18 hours at 37°

SMILES: O=C(O)c1cn(C2CC2)c2cc(N3CCNCC3)c(F)cc2c1=O [Ciprofloxacine, reference compound]
- MIC (S. aureus CB-951): 4 µg/mL (≈ 12.1 µM)
- MBC (S. aureus CB-951; CB951, read-out: Minimal bactericidal concentration (MBC)): 4 µg/mL (≈ 12.1 µM)
- MIC [1]: 0.12 µg/mL (≈ 0.362 µM)
- MBC ([1]; ATCC22853, read-out: Minimal bactericidal concentration (MBC)): 0.25 µg/mL (≈ 0.754 µM)
- MIC [2]: 0.25 µg/mL (≈ 0.754 µM)
- MBC ([2]; ATCC25923, read-out: Minimal bactericidal concentration (MBC)): 0.25 µg/mL (≈ 0.754 µM)
- MIC [3]: 0.06 µg/mL (≈ 0.181 µM)
- MBC ([3]; ATCC17904, read-out: Minimal bactericidal concentration (MBC)): 0.06 µg/mL (≈ 0.181 µM)
- MIC ([4]; ATCC8043, 18 h): 0.25 µg/mL (≈ 0.754 µM)
- MBC ([4]; ATCC8043, read-out: Minimal bactericidal concentration (MBC)): 0.25 µg/mL (≈ 0.754 µM)

SMILES: CCOC(=O)c1ccc(NC(=O)NCC2CCN(c3c(F)cc4c(=O)c(C(=O)O)cn(CC)c4c3F)CC2)cc1 [Compound 15, 7-[4-(4-ethoxycarbonylphenyl)aminocarbonylaminomethylpiperidinyl-1] 6,8-difluoro 1-ethyl]
- MIC (S. aureus CB-951; [6]): 1 µg/mL (≈ 1.8 µM)
- MBC (S. aureus CB-951; [7]): 2 µg/mL (≈ 3.59 µM)
- MIC [1, 8]: > 16 µg/mL
- MBC [1, 9]: > 16 µg/mL
- MIC [2, 10]: 0.12 µg/mL (≈ 0.216 µM)
- MBC [2, 11]: 0.12 µg/mL (≈ 0.216 µM)
- MIC [5, 12]: > 16 µg/mL
- MBC [5]: > 16 µg/mL
- MIC [3, 13]: 0.12 µg/mL (≈ 0.216 µM)
- MBC [3, 14]: 0.25 µg/mL (≈ 0.449 µM)
- MBC [4, 15]: > 16 µg/mL
- MIC [4, 16]: > 16 µg/mL

SMILES: CCn1cc(C(=O)O)c(=O)c2cc(F)c(N3CCC(CN)CC3)c(F)c21 [Compound a, 7-(4-aminomethylpiperidinyl-1) 6,8-difluoro 1-ethyl 4-oxo 1,4-dihydroquinoleinyl-3 carboxylic acid]
- Minimal bactericidal concentration (MBC) (S. aureus CB-951; S. aureus CB-951, methicillino, erythromycinolincomycino, pefloxacino resistant): 2 µg/mL (≈ 5.47 µM)
- Minimal inhibitory concentration (MIC) (S. aureus CB-951; [6]): 2 µg/mL (≈ 5.47 µM)
- Minimal bactericidal concentration (MBC) ([1]; P. aeruginosa ATCC 22853): 4 µg/mL (≈ 10.9 µM)
- Minimal inhibitory concentration (MIC) [1, 8]: 2 µg/mL (≈ 5.47 µM)
- Minimal bactericidal concentration (MBC) ([2]; S. aureus ATCC 25923): 0,25 μg/ml
- Minimal inhibitory concentration (MIC) [2, 10]: 0,25 μg/ml
- Minimal bactericidal concentration (MBC) [5]: 0,5 μg/ml
- Minimal inhibitory concentration (MIC) [5, 12]: 0,5 μg/ml
- Minimal bactericidal concentration (MBC) ([3]; Acinetobacter Baumanii ATCC 17904): 0,25 μg/ml
- Minimal inhibitory concentration (MIC) [3, 13]: 0,25 μg/ml
- Minimal bactericidal concentration (MBC) ([4]; S. faecalis ATCC 8043): 0,5 μg/ml
- Minimal inhibitory concentration (MIC) ([4]; S. faecalis ATCC 8043, Mueller-Hinton broth, 18 hours at 37°): 0,5 μg/ml

SMILES: CCn1cc(C(=O)O)c(=O)c2cc(F)c(N3CCC(CNC(=O)Nc4ccccc4F)CC3)c(F)c21 [Compound 19, 7-[4-(2-fluorophenyl)aminocarbonylaminomethylpiperidinyl-1] 6,8-difluoro 1-ethyl]
- MIC (S. aureus CB-951; [6]): 0.03 µg/mL (≈ 0.0597 µM)
- MBC (S. aureus CB-951; [7]): 0.06 µg/mL (≈ 0.119 µM)
- MIC [1, 8]: > 32 µg/mL
- MBC [1, 9]: > 32 µg/mL
- MIC [5, 12]: 8 µg/mL (≈ 15.9 µM)
- MBC [5]: 8 µg/mL (≈ 15.9 µM)
- MBC [4, 15]: 2 µg/mL (≈ 3.98 µM)
- MIC [4, 16]: 2 µg/mL (≈ 3.98 µM)

SMILES: CCn1cc(C(=O)O)c(=O)c2cc(F)c(N3CCC(CNC(=O)Nc4ccccc4)CC3)c(F)c21 [Compound 10, 7-[(4-Phenylaminocarboxamidomethyl)piperidinyl-1] 6,8-difluoro 1-ethyl 4-oxo 1,4-dihydroquinoleinyl-3 carboxylic acid]
- MIC (S. aureus CB-951; [6]): 0.3 µg/mL (≈ 0.619 µM)
- MBC (S. aureus CB-951; [7]): 1.5 µg/mL (≈ 3.1 µM)
- MIC [1, 8]: 3 µg/mL (≈ 6.19 µM)
- MBC [1, 9]: 6 µg/mL (≈ 12.4 µM)
- MIC [2, 10]: 0.15 µg/mL (≈ 0.31 µM)
- MBC [2, 11]: 0.3 µg/mL (≈ 0.619 µM)
- MIC [5, 12]: 0.7 µg/mL (≈ 1.44 µM)
- MBC [5]: 0.7 µg/mL (≈ 1.44 µM)
- MIC [3, 13]: 0.3 µg/mL (≈ 0.619 µM)
- MBC [3, 14]: 0.7 µg/mL (≈ 1.44 µM)
- MBC [4, 15]: > 25 µg/mL
- MIC [4, 16]: 25 µg/mL (≈ 51.6 µM)

SMILES: CCn1cc(C(=O)O)c(=O)c2cc(F)c(N3CCC(CNC(=O)Nc4ccc([N+](=O)[O-])cc4)CC3)c(F)c21 [Compound 17, 7-[4-(4-nitrophenyl)aminocarbonylaminomethylpiperidinyl-1] 6,8-difluoro 1-ethyl]
- MIC (S. aureus CB-951; [6]): 1 µg/mL (≈ 1.89 µM)
- MBC (S. aureus CB-951; [7]): 1 µg/mL (≈ 1.89 µM)
- MIC [1, 8]: > 16 µg/mL
- MBC [1, 9]: > 16 µg/mL
- MIC [2, 10]: 0.03 µg/mL (≈ 0.0567 µM)
- MBC [2, 11]: 0.03 µg/mL (≈ 0.0567 µM)
- MIC [5, 12]: 16 µg/mL (≈ 30.2 µM)
- MBC [5]: > 16 µg/mL
- MBC [4, 15]: 8 µg/mL (≈ 15.1 µM)
- MIC [4, 16]: 4 µg/mL (≈ 7.55 µM)
